Results as given in patent US5677288A, “Use of aminoglycosides to protect against excitotoxic neuron damage” (Cypros Pharmaceutical Corporation, priority 1994, dated 1997).
Entries after “also recorded” stand apart in the source; their conditions may differ. Like-named read-outs stand apart in the source and are kept apart here.

How the values were obtained:
[1] = system: N-type calcium channels (N-channels); type: binding, rats or mice; settings: for IC50: omega-conotoxin binding, brain membrane fragments, read-out: N-channel IC50
L-type Ca2+ channel = assay: inhibition of tritiated dihydropyridine PN-200 binding to the L-type Ca2+ channel; settings: in words
Procedure: These tests were carried out as follows. Brain tissue was used from rats or mice that had been anesthetized with halothane and decapitated. Membrane fractions were prepared as follows. Tissue samples were mixed with 25 tissue-volumes of 50 mM Tris-HCl buffer, pH 7.5. Tissue-buffer mixtures were homogenized using a Brinkman Polytron homogenizer, and resulting tissue homogenate was centrifuged at 2,400 g to pellet non-membrane derived material. The supernatant containing the brain membrane fragments was centrifuged at 30,000 g in a refrigerated (4° C.) centrifuge for 20 minutes. The pellet was resuspended in 100 tissue-volumes of the Tris-HCl buffer and centrifuged again as above. The process was repeated two more times, and the resulting pellet was resuspended in Tris-HCl buffer solution. The suspended tissue contained synaptosomal and other neurally derived membrane fragments with intact N-channels.

PTZ-induced seizures [2] = assay: PTZ-induced seizures in mice (ICV); type: in vivo, Swiss Webster mice; settings: for % having seizures: PTZ 70 mg/kg
Procedure: In addition to the in vivo gerbil experiments described in Example 4, aminoglycosides were tested in various ways to evaluate their ability to inhibit experimentally-induced seizures in mice. In one set of tests, male Swiss Webster white mice weighing 20-25 grams were used. The animals (10 per group) were pre-injected with 3 microliters (μL) of either a saline solution (control group), or saline solution containing varying dosages of neomycin sulfate. The injection was performed via the […] route, to insure access of the neomycin to neurons; when these experiments were initially performed, questions concerning the ability of neomycin to penetrate the BBB had not yet been addressed. These injections were performed as described in Haley and McCormick 1957. Twenty minutes after the injections, the animals were administered a dose of 70 mg/kg of the convulsion-inducing drug pentylenetetrazol (PTZ), injected subcutaneously in saline solution. Control animals treated with ICV saline have full seizures within seven minutes following this dose of PTZ.

PTZ-induced seizures [3] = settings: in words; not measured in these tests; cited from earlier work
PTZ-induced seizures [4] = assay: PTZ-induced seizures in rats (ICV or IP); settings: 2 mg/kg
Procedure: Seizure studies were also performed in male Sprague Dawley rats (250-300 grams). In these studies, cannulas were implanted in the lateral cerebral ventricles of several animals so that the test drugs could be administered directly into the lateral ventricle of the brain. The drugs being tested were administered 15 minutes before the administration of a convulsant drug, PTZ, at a dose of 60 mg/kg (in a saline vehicle) injected subcutaneously.
A second series of experiments was performed where neomycin sulfate was administered by the IP 30 minutes prior to PTZ injection.

[5] = system: electroconvulsive seizures; assay: electroconvulsive seizures (ECS) in mice; settings: ICV, scale one to six, six = no seizure activity
Procedure: This was accomplished using a set of platinum electrodes placed subcutaneously in two skull regions of Swiss Webster (20-25 gram) mice. The stimulus voltage was 22 mv at a duration of 0.125 mSec.
The seizures were graded on a severity scale of one to six. A score of six represented a complete absence of seizure activity, while a score of one represented the presence of a full tonic-clonic seizure with total hind leg extension. Test drugs were administered via the ICV route in a total volume of 2.5 microliters, 15 minutes prior to the administration of the electroconvulsive shock.

[6] = system: CA1 neurons in hippocampal tissue slices; assay: protection of rat hippocampal tissue slices (CA1 population spike recovery) against hypoxia; type: cell-based, Sprague-Dawley rats
blood platelets = assay: inhibition of ADP-induced platelet aggregation; type: cell-based, human; settings: 20 μM ADP, approximate results from initial tests
[7] = system: N-channels on blood platelets; type: binding, human; settings: approximate results from initial tests, read-out: Conotoxin blockage

Compound: NCC[C@H](O)C(=O)N[C@@H]1C[C@H](N)[C@@H](O[C@H]2O[C@H](CN)[C@@H](O)[C@H](O)[C@H]2O)[C@H](O)[C@H]1O[C@H]1O[C@H](CO)[C@@H](O)[C@H](N)[C@H]1O [Amikacin]
- IC50 [1]: 45 µM

Compound: NC[C@H]1O[C@H](O[C@H]2[C@H](O)[C@@H](O[C@H]3O[C@H](CO)[C@@H](O)[C@H](N)[C@H]3O)[C@H](N)C[C@@H]2N)[C@H](N)[C@@H](O)[C@@H]1O [Bekanamycin]
- IC50 [1]: > 100 µM
- L-channel IC50 (L-type Ca2+ channel): No inhibition

Compound: OC[C@H]1O[C@@H](n2cnc3c(NC4CCCCC4)ncnc32)[C@H](O)[C@@H]1O [Cyclohexyladenosine, cyclohexyladenosine]
- % having seizures (PTZ-induced seizures [2]; 2 μg): 40%
- behavioral side effects (PTZ-induced seizures [2]; in words): various behavioral side effects such as ataxia (lack of muscular control, as evidenced by an inability to walk properly) and sedation
- known cardiovascular side effects (PTZ-induced seizures [3]): known to provoke hypotension and bradycardia

Compound: CN1C(=O)CN=C(c2ccccc2)c2cc(Cl)ccc21 [Diazepam]
- % having seizures (PTZ-induced seizures [4]): 75%
- Seizure Score ([5]; 5 ug): 4.4

Compound: NC[C@@H]1CC[C@@H](N)[C@@H](O[C@H]2[C@H](O)[C@@H](O[C@H]3O[C@H](CO)[C@@H](O)[C@H](N)[C@H]3O)[C@H](N)C[C@@H]2N)O1 [Dibekacin]
- IC50 [1]: 60 µM
- L-channel IC50 (L-type Ca2+ channel): No inhibition

Compound: CNC1C(OC2C(OC3C(O)C(O)C(N=C(N)N)C(O)C3N=C(N)N)OC(C)C2(O)CO)OC(CO)C(O)C1O (stereo not drawn) [Dihydrostreptomicin]
- IC50 [1]: > 50 µM

Compound: CN[C@H]1C[C@@H](N)[C@H](O)[C@@H](O[C@@H]2O[C@H](CO)[C@H](O)[C@@H]3OC4(O[C@H]23)O[C@H]([C@@H](N)CO)[C@H](O)[C@H](O)[C@H]4O)[C@@H]1O (stereo partly drawn) [Hygromycin B]
- IC50 [1]: > 1000 µM

Compound: NC[C@H]1O[C@H](O[C@H]2[C@H](O)[C@@H](O[C@H]3O[C@H](CO)[C@@H](O)[C@H](N)[C@H]3O)[C@H](N)C[C@@H]2N)[C@H](O)[C@@H](O)[C@@H]1O [Kanamycin]
- IC50 [1]: > 50 µM
- L-channel IC50 (L-type Ca2+ channel): No inhibition

Compound: C[C@H]1O[C@H](O[C@H]2[C@H](O)[C@@H](O)[C@@H](O)[C@H](O)[C@@H]2O)[C@@H](N)C[C@@H]1NC(=N)C(=O)O [Kasugamycin]
- IC50 [1]: > 1000 µM

Compound: NC[C@@H]1O[C@H](O[C@H]2[C@@H](O)[C@H](O[C@@H]3[C@@H](O)[C@H](N)C[C@H](N)[C@H]3O[C@H]3O[C@H](CO)[C@@H](O)C[C@H]3N)O[C@@H]2CO)[C@H](N)[C@@H](O)[C@@H]1O[C@H]1O[C@H](CO)[C@@H](O)[C@H](O)[C@@H]1O [Lividomycin A]
- IC50 [1]: 50 µM
- L-channel IC50 (L-type Ca2+ channel): No inhibition

Compound: NC[C@H]1O[C@H](O[C@H]2[C@H](O)[C@@H](O)[C@H](N)C[C@@H]2N)[C@H](N)[C@@H](O)[C@@H]1O [Neamine]
- IC50 [1]: 25 µM

Compound: NC[C@@H]1O[C@H](O[C@H]2[C@@H](O)[C@H](O[C@@H]3[C@@H](O)[C@H](N)C[C@H](N)[C@H]3O[C@H]3O[C@H](CN)[C@@H](O)[C@H](O)[C@H]3N)O[C@@H]2CO)[C@H](N)[C@@H](O)[C@@H]1O.O=S(=O)(O)O [Neomycin Sulfate]
- % having seizures (PTZ-induced seizures [2]; 5 μg ICV): 50%
- % having seizures (PTZ-induced seizures [2]; 10 μg ICV): 60%
- protection against seizures (PTZ-induced seizures [2]; five or ten micrograms ICV, in words): substantially protected against seizures

Compound: NC[C@@H]1O[C@H](O[C@H]2[C@@H](O)[C@H](O[C@@H]3[C@@H](O)[C@H](N)C[C@H](N)[C@H]3O[C@H]3O[C@H](CO)[C@@H](O)[C@H](O)[C@H]3N)O[C@@H]2CO)[C@H](N)[C@@H](O)[C@@H]1O [Paromomycin]
- IC50 [1]: 40 µM
- L-channel IC50 (L-type Ca2+ channel): No inhibition

Compound: NC[C@H]1O[C@H](O[C@H]2[C@H](O[C@@H]3O[C@H](CO)[C@@H](O)[C@H]3O)[C@@H](O)[C@H](N)C[C@@H]2N)[C@H](N)[C@@H](O)[C@@H]1O [Ribostamycin]
- L-channel IC50 (L-type Ca2+ channel): No inhibition

Compound: CN[C@@H]1[C@@H](O)[C@@H](O[C@@H]2[C@@H](O)[C@H](O[C@H]3OC(CN)=CC[C@H]3N)[C@@H](N)C[C@H]2N)OC[C@]1(C)O [Sisomicin]
- N-channel blocking potency (in words) [1]: high potency
- N-channel blocking potency (in words) ([1]; listed as sisomicin): most potent N-channel blockers
- IC50 [1]: 5 to 10 µM
- CA1 antidromic PS amplitude recovery ([6]; 1.0 mM, stimulated slices): 70±15%
- CA1 orthodromic PS amplitude recovery ([6]; 1.0 mM, stimulated slices): 76±9%
- CA1 antidromic PS recovery ([6]; 1.0 mM, unstimulated slices): 93±3%
- CA1 orthodromic PS recovery ([6]; 1.0 mM, unstimulated slices): 93±3%
- hypoxic injury potential (HIP) profile ([6]; in words): HIP profiles evolved with a time course similar to untreated slices
- neuronal protection against hypoxia (summary) ([6]; in words): restore orthodromic and antidromic activity; also recorded: high level of neuronal protection against hypoxia
- L-channel IC50 (L-type Ca2+ channel): No inhibition

Compound: CNC1C(O)C(NC)C2OC3(O)C(=O)CC(C)OC3OC2C1O (stereo not drawn) [Spectiomycin]
- IC50 [1]: > 1000 µM

Compound: [H]/N=C(/N)N[C@H]1[C@H](O)[C@@H](O)[C@H](O[C@@H]2O[C@@H](C)[C@](O)(C=O)[C@H]2O[C@@H]2O[C@@H](CO)[C@H](O)[C@@H](O)[C@@H]2NC)[C@@H](N/C(N)=N\[H])[C@@H]1O [Streptomycin]
- N-channel blocking potency (in words) [1]: low potency
- N-channel blocking potency (in words) ([1]; listed as streptomycin): somewhat less potent N-channel blocker
- IC50 [1]: 25 µM
- protection of CA1 antidromic population spikes ([6]; 10 mM): 38±22%
- neuronal protection against hypoxia (summary) ([6]; in words): ineffective in reducing hypoxic damage to hippocampal tissue slices except when administered in high dosages; also recorded: only marginally effective and required high doses
- neuronal protection against hypoxia (summary) ([6]; in words, listed as streptomycin): some potency but at substantially lower levels; also recorded: lower degree of neuroprotection
- IC50 (blood platelets; Homo sapiens, Platelet): 5000 µM
- IC50 [7]: 15 µM
- L-channel IC50 (L-type Ca2+ channel): No inhibition

Compound: NC[C@H]1O[C@H](O[C@H]2[C@H](O)[C@@H](O[C@H]3O[C@H](CO)[C@@H](O)[C@H](N)[C@H]3O)[C@H](N)C[C@@H]2N)[C@H](N)C[C@@H]1O [Tobramycin]
- IC50 [1]: > 50 µM

Compound: Butirosin
- IC50 [1]: 150 µM

Compound: Gentamicin
- N-channel blocking potency (in words) [1]: intermediate
- N-channel blocking potency (in words) ([1]; listed as gentamicin): most potent N-channel blockers
- IC50 [1]: 10 µM
- CA1 orthodromic PS recovery ([6]; 2.5 mM, stimulated slices): 60±23%
- neuronal protection against hypoxia (summary) ([6]; in words): restore orthodromic and antidromic activity; also recorded: high level of neuronal protection against hypoxia
- IC50 (blood platelets): 2000 µM
- IC50 [7]: 5 µM
- Seizure Score ([5]; 40 ug): 4.9
